Results reported in patent US12723233B2, “Media and methods for differentiating natural killer cells” (STEMCELL Technologies Canada Inc., priority 2018, dated 2026).

What was measured:
[1] = system: PSC-derived NK cell progenitors; experiment: Differentiation of PSC-derived NK cell progenitors to CD56+ cells; format: cell-based, Human; details: PSC lines 1C, M001, H1, F016; UM729 during days 24 to 38
Description: Three induced pluripotent stem cell (iPSC) lines—WLS-1C, STiPSC M001, and STiPS F016—and one embryonic stem cell (ESC) line—H1 were maintained in mTeSR™ 1. The PSC were harvested and dissociated using accutase into single cell suspensions and were filtered using 37 μm reversible strainer (STEMCELL Technologies).
Single cell suspensions of PSC were seeded into AggreWell plates (STEMCELL Technologies) to form 500-cell aggregates. The seeded cells were cultured in a mesoderm differentiation medium and 10 μM Y027632 (STEMCELL Technologies). After 3 days (i.e. on day 3) in culture the medium was changed to induce hematopoietic lineage differentiation. After 7 days (i.e. on day 10) in culture the aggregates were harvested and dissociated using collagenase II and a trypsin-containing solution.
Dissociated cells were enriched for CD34^+ cells using EasySep™ Human CD34 Positive Selection Kit II (STEMCELL Technologies, catalogue #17856). […]
The cells were stained for CD56 essentially as described in Example 3 and analyzed for frequency of CD56^+ cells and yield of CD56^+ cells per 5×10^4 input PSC-derived CD34^+ cells. […]

[2] = system: sorted day 14 populations of NK cell progenitors; experiment: Differentiation of sorted day 14 NK cell progenitor subsets to CD56+ NK cells, cultured another 14 days; format: cell-based, Human
From the text: CD34^+ CB cells were isolated and cultured as described in Example 1 up to the day 14 time point. NK cell progenitors derived from CB CD34^+ HSPCs after 14 days of culture were stained, essentially as described in Example 3, with antibodies against markers CD5, CD7, and CD56. CD56^− cells were gated and CD7^+CD5^−, CD7^+CD5^+, CD5^−CD7^− cells were sorted using a BD FACSAria Fusion fluorescence-activated cell sorter. To investigate which subset of the day 14 population of NK cell progenitors is targeted by pyrimidoindole compounds, the CD7^+CD5^−, CD7^+CD5^+ and CD7^−CD5^− sorted populations were each cultured for another 14 days in NK Cell Differentiation medium without or with UM729. CD34^+ CB cells were isolated and cultured as described in Example 1 up to the day 14 time point. NK cell progenitors derived from CB CD34^+ HSPCs after 14 days of culture were stained, essentially as described in Example 3, with antibodies against markers CD5, CD7, CD34, and CD56. CD56^− cells were gated and […], and CD34^− CD7^+CD5^− and CD34^−CD7^+CD5^+ were sorted using a BD FACSAria Fusion fluorescence-activated cell sorter. CD7 cells were sorted as a negative control. To investigate which subset of the day 14 population of NK cell progenitors is targeted by pyrimidoindole compounds, the CD34^+CD7^+CD5^− and CD34^+CD7^+CD5^+, and CD34^−CD7^+CD5^− and CD34^− CD7^+CD5^+ sorted populations were each cultured for another 14 days in NK Cell Differentiation medium with or without UM729.

K562 target cells = experiment: Calcein AM release cytotoxicity assay of differentiated CD56+ NK cells; format: cell-based; details: cells differentiated in the presence of 1 μM UM729, day 28; effector to target ratio 5:1, 4 hours
Description: CD56^+ NK cells were differentiated as described in Examples 1 and 2 in the presence of 1 μM UM729 and analyzed on day 28 for their cytotoxicity toward K562 target cells.
For the cytotoxicity assay, the in vitro generated CD56^+ NK cells were co-cultured with Calcein AM labeled K562 cells for 4 hours at a ratio of 5:1 for effector cells (NK cells) to target cells (K562 cells), and supernatants were analysed for the release of fluorescent Calcein from killed target cells.
Peripheral blood (PB) NK cells and Monocytes isolated using EasySep™ (STEMCELL Technologies, Catalogue #17955 and 19359, respectively) were also co-cultured with labelled K562 cells as positive and negative controls, respectively, at the same ratios described above.
To detect spontaneous release of calcein, control wells containing only calcein AM-labeled K562 target cells were set up. The labeled K562 cells were treated with 1% Triton™ X-100 to measure maximum release. After incubation, plates were centrifuged at 500×g for 5 minutes and 100 μL of supernatant was transferred to black plates and analyzed using a SpectraMax® microplate reader (excitation 485 nm/emission 530 nm). Results are expressed as % specific lysis: [(test release−spontaneous release)×100]/(maximum release−spontaneous release).

[3] = sorted CD7+CD5+ cells, 14 days with UM729, three donors
[4] = sorted CD7+CD5− cells, 14 days with UM729, three donors
[5] = sorted CD34−CD7+CD5+ cells, 14 days with UM729
[6] = sorted CD34−CD7+CD5− cells, 14 days with UM729

## COC(=O)c1ccc2c(c1)[nH]c1ncnc(NCCCN3CCCCC3)c12 [UM729, methyl 4-((3-(piperidin-1-yl)propyl)amino)-9H-pyrimido[4,5-b]indole-7-carboxylate]
[1]
  Frequency of CD56+ cells compared to absence of UM729: increased
  Yield of CD56+ cells per 5×10^4 input PSC-derived CD34+ cells compared to absence of UM729: increased
[2]; [3]
  Frequency of NK cells compared to culture conditions lacking UM729: higher
  Yield of NK cells compared to culture conditions lacking UM729: higher
[2]; [4]
  Frequency of NK cells compared to culture conditions lacking UM729: higher
  Yield of NK cells compared to culture conditions lacking UM729: higher
[2]; sorted CD7−CD5− cells, presence or absence of UM729
  Expansion and differentiation to NK cells: did not expand and differentiate to NK cells
[2]; sorted CD34+CD7+CD5− and CD34+CD7+CD5+ cells, 14 days with UM729
  Responsiveness of CD34+ NK progenitor cell subsets to UM729: do not appear responsive
[2]; [5]
  Frequency of NK cells compared to culture conditions lacking UM729: higher
  Yield of NK cells compared to culture conditions lacking UM729: higher
[2]; [6]
  Frequency of NK cells compared to culture conditions lacking UM729: higher
  Yield of NK cells compared to culture conditions lacking UM729: higher
K562 target cells
  Cytotoxicity (killing ability) of differentiated NK cells toward K562 target cells: able to kill K562 target cells
